Each structure is given as a SMILES string.

In test [1] the test system is chimeric PR-1a/GUS gene. In words: GUS induction in transformed carrot callus. In kind it is cell-based. Particulars: carrot callus transformed by pCIB271; 50 mM sodium salicylate or 250 g/l methyl ester spray; 21 hours; H2O spray 5.2. The procedure:
To surface sterilize the carrots they are peeled and then soaked 20 minutes in a 10% solution of chlorox. The carrots are rinsed with sterile water, sliced into 5 mm pieces and placed basal side up onto water agar. 20-50 l of bacteria are then applied to the upper surface of the discs. After 7 days the discs are transferred to 0.7% agar containing MS salts, 3% sucrose, 0.1 mg/l 2,4-D, […] kanamycin, 100 µg/ml carbenicillin, and 100 µg/ml mefoxin. Callus forming around the cambial ring is excised and placed on 0.7% MS agar supplemented with 3% sucrose, 0.1 mg/l 2,4-D, […] kanamycin, 100 µg/ml carbenicillin, and 100 µg/ml mefoxin. After the callus has been grown it is cut into small pieces and randomized onto four plates of the same media. […]
(§1) The reactions are carried out in the wells of ELISA plates by mixing 5-25 l extract with 120-100 l GUS assay buffer (50 mM sodium phosphate buffer pH 7.0, 0.1% Triton X-100, 10 mM β-mercaptoethanol) containing 4-methyl umbelliferyl glucuronide (MU) at a final concentration of 2 mM in a total volume of 125 l. […] The concentration of fluorescent indicator released is determined by reading the plate on a Flow Labs Fluoroskan II ELISA plate reader.

Test [2] concerns chimeric PR-1a/GUS gene. Briefly: GUS induction in transformed tomato callus. Format: cell-based. The following applies: 250 g/l spray, 21 hours. The method, then:
Agrobacterium strains containing the appropriate vectors as described above (e.g. CIB270, CIB271, CIB272, CIB273, pCIB271×15955, pCIB271 X A208, pCIB271 X A281, pCIB271 X A4, pCIB272 X 15955, pCIB272 X A208, pCIB272 X A281, pCIB272 X A4, pCIB273 X 15955, pCIB273 X A208, pCIB273 X A281, and pCIB273 X A4) are grown as described in Example 112. The bacteria, diluted to an OD600 of 0.2-0.4, are then used for inoculation of stems of tomato seedlings prepared as described below.
Tomato seeds are soaked 20 min in 10% chlorox and rinsed with sterile water. […]
After one week the inoculated stems are cut and placed on 0.7% agar containing MS salts, 3% sucrose, […] 6-benzylaminopurine, 100 µg/ml carbenicillin, 100 µg/ml mefoxim, and 50 µg/ml kanamycin. […] The callus is transferred to fresh media every two weeks until sufficient quantity is obtained for 4 plates. […]
as §1

In test [3] the test system is chimeric PR-1a/GUS gene. In words: Transient GUS expression in tobacco protoplasts treated with pCIB269. Format: cell-based, N. tabacum. Particulars: H2O 30.6 13. The procedure:
B. DNA is introduced into protoplasts by a modification of the method of Negrutiu, I. et al., Plant Mol. Biol. 8: 363 (1987). The protoplasts prepared as described in part A are resuspended following the last washing step in a solution consisting of 0.4 M mannitol, 15-30 mM CaCl2, 0.1% w/v MES at a density of 1.6-2×10^6 per ml. The protoplast suspension is distributed as 0.5 ml aliquots into 10 ml plastic centrifuge tubes. DNA such as that described in Examples 28 to 40 is added in 10 l sterile distilled water, sterilized as described by Paszkowski, J. et al., EMBO J. 3: 2717 (1984), and then 0.5 ml of the PEG solution (40% (w/v) PEG MW 8000 in 0.4 M mannitol, 0.1 M Ca(NO3)2, pH 7.0) is added. The solutions are mixed gently and incubated for 30 minutes at room temperature (about 24° C.) with occasional shaking. 1 ml of the wash solution is then added, and the contents of the tube gently mixed. […]
as §1

`COC(=O)c1cccc2nnsc12` [Methyl benzo-1,2,3-thiadiazole-7-carboxylate]: the GUS activities in test [1] worked out at 22.1 pKat MU/mg protein; in test [2] (tomato callus transformed with CIB271, H2O spray 17.2) it was 56.1 pKat MU/mg protein; in test [2] (tomato callus transformed with CIB273 X A4, H2O spray 4.6), 22.1 pKat MU/mg protein. For the same compound, the “GUS activity, transient expression” value in test [3] is 66.6 pKat MU/mg protein.
As to `O=C(O)c1ccccc1O` [Salicylic acid, salicylic acid], the GUS activities in test [1] amounted to 11.6 pKat MU/mg protein.

These data come from patent US6632981B1, “DNA sequences encoding polypeptides having beta-1,3-glucanase activity” (Novartis Finance Corporation, priority 1988, dated 2003).
